# Assay results published in patent US20080161232A1, “C5a Receptor Antagonist” (JERINI AG, priority 2005, published 2008).
# Starred links: 1 amine or outer side, 2 acyl side, 3 side chain; linkers in the order of their positions; H or OH if unused. Positions of bridges follow the written chain, without caps; N, C: chain ends. Non-standard residues stand in square brackets, D forms with d. Residues, ends and D or L forms follow the SMILES beside them. *: point of attachment. X6 = O=C([C@H](C[S+]([O-])Cc1cccnc1)N[*:1])[*:2]; Decanoyl(3,6,9-trioxa) = COCCOCCOCC(=O)*; Phe(3-Cl) = N[C@@H](Cc1cccc(Cl)c1)C(=O)O; Phe(4-F) = N[C@@H](Cc1ccc(F)cc1)C(=O)O; 1Nal = N[C@@H](Cc1cccc2ccccc12)C(=O)O; 2Nal = N[C@@H](Cc1ccc2ccccc2c1)C(=O)O; Bta = N[C@@H](Cc1csc2ccccc12)C(=O)O; Hyp = O=C(O)[C@@H]1C[C@@H](O)CN1; d(hLeu) = CC(C)CC[C@@H](N)C(=O)O; 2Thi = N[C@@H](Cc1cccs1)C(=O)O; dCha = N[C@H](CC1CCCCC1)C(=O)O; Nle = CCCC[C@H](N)C(=O)O; Orn = NCCC[C@H](N)C(=O)O; Propionyl = CCC(=O)*; tBu = CC(C)(C)*
# Target: T1, human C5aR(CD88) (Homo sapiens, UniProt P21730)
# T1 construct: expressed in transfected cells; host or cells: rat basophilic leukemia cells (RBL)
# T1 sequence (P21730 1-350): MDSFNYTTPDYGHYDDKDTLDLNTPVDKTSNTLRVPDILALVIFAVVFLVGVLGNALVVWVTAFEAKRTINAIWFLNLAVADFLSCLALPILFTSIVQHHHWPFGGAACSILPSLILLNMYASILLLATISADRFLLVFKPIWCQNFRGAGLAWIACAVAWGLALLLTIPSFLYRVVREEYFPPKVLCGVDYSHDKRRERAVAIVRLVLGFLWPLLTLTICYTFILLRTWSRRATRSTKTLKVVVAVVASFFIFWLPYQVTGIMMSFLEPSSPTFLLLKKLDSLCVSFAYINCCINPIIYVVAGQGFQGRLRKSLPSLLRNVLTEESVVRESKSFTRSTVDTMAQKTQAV
# Assay: Determination of the IC50 value in an enzyme release assay (functional assay, antagonistic activity)
# Format: cell-based
# Conditions: antagonistic activity; IC50 group in enzyme release assay, RBL cells expressing human C5aR(CD88); read-out: activity (group)
row,SMILES,IC50 [nM]
1,"CC(=O)N[C@@H](Cc1cccs1)C(=O)N[C@@H](CCCN)C(=O)N1CCC[C@H]1C(=O)N[C@H](CC1CCCCC1)C(=O)N[C@@H](Cc1c[nH]c2ccccc12)C(=O)N[C@@H](Cc1ccccc1)C(N)=O [Compound 77, Ac-Thi-Orn-Pro-cha-Trp-Phe-NH2] (Ac-[2Thi][Orn]P[dCha]WF-NH2)",50 to 200
2,CC(=O)N[C@@H](Cc1ccccc1)C(=O)N[C@H]1CCCNC(=O)[C@H](C[S+]([O-])Cc2cccnc2)NC(=O)[C@H](Cc2c[nH]c3ccccc23)NC(=O)[C@@H](CC2CCCCC2)NC(=O)[C@@H]2CCCN2C1=O (stereo partly shown) [compound 16] (Ac-F[Orn]P[dCha]W[X6]; lactam 2-C),200 to 2000
3,"CCCC[C@@H]1NC(=O)[C@H](Cc2c[nH]c3ccccc23)NC(=O)[C@@H](CCC(C)C)NC(=O)[C@@H]2C[C@@H](O)CN2C(=O)[C@@H](NC(=O)[C@@H](N)Cc2ccccc2)CCCNC1=O [Compound 369, H-Phe-[Orn-Hyp-hle-Trp-Nle]] (H-F[Orn][Hyp][d(hLeu)]W[Nle]; lactam 2-C)",20 to 50
4,"CC(=O)N[C@@H](Cc1ccccc1)C(=O)N[C@@H](CCCN)C(=O)N1CCC[C@H]1C(=O)N[C@H](CC1CCCCC1)C(=O)N[C@@H](Cc1csc2ccccc12)C(=O)N[C@@H](Cc1cccc2ccccc12)C(N)=O [Compound 249, Ac-Phe-Orn-Pro-cha-Bta-1Ni—NH2] (Ac-F[Orn]P[dCha][Bta][1Nal]-NH2)",50 to 200
5,"CC(=O)N[C@@H](Cc1ccccc1)C(=O)N[C@@H](CCCN)C(=O)N[C@@H](CO)C(=O)N[C@H](CC1CCCCC1)C(=O)N[C@@H](Cc1csc2ccccc12)C(=O)N[C@@H](Cc1ccccc1)C(N)=O [Compound 309, Ac-Phe-Orn-Ser-cha-Bta-Phe-NH2] (Ac-F[Orn]S[dCha][Bta]F-NH2)",20 to 50
6,"CC[C@@H](C)[C@@H](NC(=O)[C@@H]1CCCN1C(=O)[C@H](CCCN)NC(=O)[C@H](Cc1ccccc1)NC(C)=O)C(=O)N[C@@H](Cc1c[nH]c2ccccc12)C(=O)N[C@@H](Cc1ccccc1)C(N)=O [Compound 307, Ac-Phe-Orn-Pro-ile-Trp-Phe-NH2] (Ac-F[Orn]P[dI]WF-NH2)",5 to 10
7,"CC(=O)N[C@@H](Cc1ccccc1)C(=O)N[C@@H](CCCN)C(=O)N1CCC[C@H]1C(=O)N[C@H](CSC(C)(C)C)C(=O)N[C@@H](Cc1ccc(F)cc1)C(=O)N[C@@H](Cc1ccccc1)C(N)=O [Compound 266, Ac-Phe-Orn-Pro-ctb-Pff-Phe-NH2] (Ac-F[Orn]P[dC](tBu)[Phe(4-F)]F-NH2)",20 to 50
8,"CC(=O)N[C@@H](Cc1ccccc1)C(=O)N[C@@H](CCCN)C(=O)N1CCC[C@H]1C(=O)N[C@H](CCC(C)C)C(=O)N[C@@H](Cc1ccc(F)cc1)C(=O)N[C@@H](Cc1ccc2ccccc2c1)C(N)=O [Compound 297, Ac-Phe-Orn-Pro-hle-Pff-2Ni—NH2] (Ac-F[Orn]P[d(hLeu)][Phe(4-F)][2Nal]-NH2)",50 to 200
9,"CCC(=O)N[C@@H](Cc1ccccc1)C(=O)N[C@@H](CCCN)C(=O)N1CCC[C@H]1C(=O)N[C@H](CC1CCCCC1)C(=O)N[C@@H](Cc1csc2ccccc12)C(=O)N[C@@H](Cc1ccccc1)C(N)=O [Compound 316, CH3CH2CO-Phe-Orn-Pro-cha-Bta-Phe-NH2] (Propionyl-F[Orn]P[dCha][Bta]F-NH2)",20 to 50
10,"CC(=O)N[C@@H](Cc1ccccc1)C(=O)N[C@@H](CCCN)C(=O)N1C[C@H](O)C[C@H]1C(=O)N[C@H](CC1CCCCC1)C(=O)N[C@@H](Cc1c[nH]c2ccccc12)C(=O)N[C@@H](Cc1ccccc1)C(N)=O [Compound 93, Ac-Phe-Orn-Hyp-cha-Trp-Phe-NH2] (Ac-F[Orn][Hyp][dCha]WF-NH2)",200 to 2000
11,"CC(=O)N[C@@H](Cc1ccccc1)C(=O)N[C@@H](CCCN)C(=O)N1CCC[C@H]1C(=O)N[C@H](CSC(C)(C)C)C(=O)N[C@@H](Cc1cccc(Cl)c1)C(=O)N[C@@H](Cc1ccccc1)C(N)=O [Compound 265, Ac-Phe-Orn-Pro-ctb-Mcf-Phe-NH2] (Ac-F[Orn]P[dC](tBu)[Phe(3-Cl)]F-NH2)",50 to 200

# Same assay, conditions: functional assay of example 11; noteworthy = IC50 less than 200 nM
row,SMILES,inhibitory activity (in words)
1,"COCCOCCOCC(=O)O[C@@H]1C[C@H]2C(=O)N[C@H](CC3CCCCC3)C(=O)N[C@@H](Cc3c[nH]c4ccccc34)C(=O)N[C@@H](Cc3ccccc3)C(=O)NCCC[C@H](NC(=O)[C@H](Cc3ccccc3)NC(C)=O)C(=O)N2C1 [Ac-Phe-[Orn-Hyp(COCH2OCH2CH2OCH2CH2OCH3)-cha-Trp-Phe]] (Ac-F[Orn][Hyp](Decanoyl(3,6,9-trioxa))[dCha]WF; lactam 2-C)",noteworthy inhibitory activity
2,CC(=O)N[C@@H](Cc1ccccc1)C(=O)N[C@H]1CCCNC(=O)[C@H](Cc2ccccc2)NC(=O)[C@H](Cc2c[nH]c3ccccc23)NC(=O)[C@@H](CC2CCCCC2)NC(=O)[C@H](CO)NC1=O [Ac-Phe-[Orn-Ser-cha-Trp-Phe]] (Ac-F[Orn]S[dCha]WF; lactam 2-C),noteworthy inhibitory activity
